Results taken from article PMC12195707, “Evaluation of Antitumoral Activity in a 3D Cell Model of a Src Inhibitor Prodrug for Glioblastoma Treatment” (Pharmaceutics, 2025).

Legend:
[1] = PAMPA assay, blood-brain barrier (BBB) membrane
Description: (§1) After being first dissolved in DMSO, the compounds were diluted 1:1 v/v using phosphate buffer (PBS 10 mM, pH 7.4). […] The gastrointestinal (GI) and blood–brain barrier (BBB) phospholipidic bilayers were mimicked by covering each well of the filter plate with either a 10%w/v CHCl3/dodecane brain polar lipid solution or a 1%w/v L-α-phosphatidylcholine solution (PC) in dodecane. After placing a DMSO/PBS 1:1v/v combination solution in the acceptor plate, the sandwich was gently shaken and incubated at room temperature for four hours. Samples were collected from the upper and bottom plates at the end time point, and the LC-UV/MS method was used for analysis. As previously reported, the apparent permeability (Papp cm/s × 10^−6) was quantified.

[2] = PAMPA assay, gastrointestinal (GI) membrane; type: in vitro ADME; conditions: four hours
Description: as §1

orthotopic GBM model = test system: orthotopic GBM model; set-up: method as in PMID 28650650; conditions: compared with SI306; cited from earlier work

Row | Apparent permeability Papp ([1]; BBB PAMPA, room temperature, four hours) [cm/s × 10^−6] | Membrane retention MR ([1]; PAMPA, 4 h, pH 7.4) [%] | Papp at 4 h ([2]; pH 7.4, room temperature, read-out: Apparent permeability Papp) [×10⁻⁶ cm/s] | Membrane retention MR ([2]; room temperature) [%] | Structure (SMILES) | Efficacy in orthotopic GBM model (orthotopic GBM model)
1 | 17.16 ± 0.31 | 10.73 ± 1.33 | 19.2 ± 0.37 | 8.89 ± 1.12 | CC(C)NCC(O)COc1cccc2ccccc12 (centres unmarked) [Propranolol, propranolol, reference compound] | –
2 | – | – | – | – | CN1CCN(CCOC(=O)N(c2cccc(Br)c2)c2nc(SCCN3CCOCC3)nc3c2cnn3CC(Cl)c2ccccc2)CC1 (centres unmarked) [SI306-PD1] | greater efficacy than SI306
